Read-outs that look alike come from different tables or passages of the source.
Target: T1, mTLR9 (Mus musculus, UniProt Q9EQU3)
T1 construct: Splenocytes isolated from male C57/BL6 mice; from tissue; host or cells: splenocytes from the spleen of male C57BL/6 mice
T1 sequence (Q9EQU3 26-1032): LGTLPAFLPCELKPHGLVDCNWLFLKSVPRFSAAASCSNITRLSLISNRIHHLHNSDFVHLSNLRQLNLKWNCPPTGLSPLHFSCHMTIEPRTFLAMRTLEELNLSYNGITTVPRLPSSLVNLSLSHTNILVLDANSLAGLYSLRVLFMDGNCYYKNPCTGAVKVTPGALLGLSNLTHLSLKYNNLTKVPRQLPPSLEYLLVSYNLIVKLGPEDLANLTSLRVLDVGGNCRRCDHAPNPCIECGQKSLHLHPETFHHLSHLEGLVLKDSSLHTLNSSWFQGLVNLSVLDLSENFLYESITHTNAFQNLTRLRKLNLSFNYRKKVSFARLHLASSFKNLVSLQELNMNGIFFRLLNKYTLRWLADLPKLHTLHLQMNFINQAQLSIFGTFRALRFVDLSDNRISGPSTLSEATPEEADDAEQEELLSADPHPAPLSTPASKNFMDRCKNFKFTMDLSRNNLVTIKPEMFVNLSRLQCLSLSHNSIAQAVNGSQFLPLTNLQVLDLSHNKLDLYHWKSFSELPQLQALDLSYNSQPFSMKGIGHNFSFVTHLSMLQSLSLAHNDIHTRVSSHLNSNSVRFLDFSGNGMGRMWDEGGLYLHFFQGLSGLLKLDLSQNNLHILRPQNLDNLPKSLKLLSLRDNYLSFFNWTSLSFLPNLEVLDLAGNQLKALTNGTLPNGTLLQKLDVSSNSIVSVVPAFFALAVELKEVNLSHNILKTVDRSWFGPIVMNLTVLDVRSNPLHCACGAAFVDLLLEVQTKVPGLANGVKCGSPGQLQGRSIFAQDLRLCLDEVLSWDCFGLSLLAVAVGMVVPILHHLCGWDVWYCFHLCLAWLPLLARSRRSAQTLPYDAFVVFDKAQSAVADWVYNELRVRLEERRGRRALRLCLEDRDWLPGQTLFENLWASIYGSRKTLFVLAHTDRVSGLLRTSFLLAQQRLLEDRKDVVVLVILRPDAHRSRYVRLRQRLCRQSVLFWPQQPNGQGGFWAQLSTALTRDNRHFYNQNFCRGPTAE
Experiment: mTLR9 antagonism (IL-6 and TNF-α release assay) in mouse splenocytes, CpG ODN-2006 stimulated
Assay type: cell-based
Conditions: 1 μM, mouse splenocytes
Excerpt: mTLR9 and mTLR7 Antagonism (Cytokine Release Assay) in Mouse Splenocytes
TLR7 ligand R0006 (IDT, 5′-rU*rU*rG*rU*rU*rG*rU*rU*rG*rU*rU*rG*rU*rU*rG*rU*rU*rG*rU*rU-3′ (SEQ ID NO:1)), Liposomal transfection reagent—DOTAP (Roche, Cat. No. 11202375001), TLR9 ligand CpG ODN2006 (Sequence: T*C*G*T*C*G*T*T*T*T*G*T*C*G*T*T*T*T*G*T*C*G*T*T; *=phosphorothioate (SEQ ID NO:2)) DMSO (Sigma, D2650), RPMI Powder (Sigma, R6504), Fetal Bovine Serum (Gibco, 10270), Dulbecco's Phosphate Buffered Saline (Sigma, D1408), 96 well plate (Flat bottom, Costar 3599), ELISA kit for IL-6 (EBioscience, 88-7064-77 and TNFa (EBioscience, 88-7346-88), MACS Buffer (AutoMACS Rinsing Solution (Miltenyl Biotec, 130-091-222)+0.05% BSA), RBC lysis buffer (0.85% NH4Cl), 40 μm cell strainer (BD Falcon, 352340) Method: A. Isolation of Mouse Splenocytes
Mouse spleen was isolated from C57BL6 mouse and stored in 1× chilled PBS buffer until further processed. Spleen was transferred to a sterile petriplate and chopped in to 5-6 pieces in presence of MACS buffer (100 μl) with the help of fresh surgical blade and crushed with flat plunger of a sterile syringe. A uniform suspension was prepared by passing cells through a 40 μm cell strainer. Cells were centrifuged at 450×g for 5 minutes at 4° C., supernatant was discarded and pellet dislodged gently, resuspended in 2 ml of pre-warmed (37° C.) RBC lysis buffer at room temperature with continuous gentle mixing with 1 ml pipette. Lysis buffer was neutralized with 12 ml of chilled MACS buffer and cells were passed through 40 μm cell strainer. Cell suspension was collected in 15 ml MACS buffer and centrifuged at 450×g for 5 minutes at 4° C. Pellet was resuspended in 15 ml MACS buffer and centrifuged at 400×g for 5 minutes. Cells were resuspended in 10 ml of RPMI complete medium and viability was estimated by Trypan blue method.
mTLR9 Antagonism (IL-6 and TNF-α Release Assay):
500 μM stock of CpG ODN-2006 was prepared in sterile, endotoxin-free water. Dilutions of 10× concentrations of NCEs were prepared in incomplete RPMI media, maintaining a final DMSO concentration of 0.3%. NCEs were added in a concentration range of 30 μM to 1 nM in respective wells of assay plate, assay medium containing 0.3% DMSO were added to control wells. 0.2 million splenocytes were added to all the wells and incubated at 37° C. in 5% CO2 incubator for 30 minutes. 1 μg/ml of respective agonist was added to all the wells except those were assigned as negative controls and mixed thoroughly. Incomplete RPMI was added to negative control wells and incubated overnight at 37° C./5% CO2. The plate was centrifuged at 450×g for 5 minutes at room temperature and the supernatant was collected. ELISA was performed as per manufacturer's protocol. S/B Ratio, % Activity and % Inhibition was calculated using MS Excel. IC50 and inhibition curve was generated using Graph Pad Prism.

[1] = IL-6 release, read-out: mTLR9 inhibitory activity (% at 1 μM), IL-6
[2] = TNF-α release, read-out: mTLR9 inhibitory activity (% at 1 μM), TNF-α

Row | inhibition at 1 µM [1] [%] | inhibition at 1 µM [2] [%] | Structure (SMILES)
1 | 0 | 38 | CN1CCN(Cc2ccc(-c3nccc4[nH]c(CN5CCOCC5)cc34)cc2)CC1 [Example A60, 4-[[4-[4-[(4-methylpiperazin-1-yl)methyl]phenyl]-1H-pyrrolo[3,2-c]pyridin-2-yl]methyl]morpholine]
2 | 95 | 52 | CC(C)N1CCC(c2ccc(-c3nccc4[nH]c(CN5CCOCC5)cc34)cc2)CC1 [Example A70, 4-[[4-[4-(1-isopropyl-4-piperidyl)phenyl]-1H-pyrrolo[3,2-c]pyridin-2-yl]methyl]morpholine]
3 | 96 | 64 | Cc1cc2[nH]c(CN3CCC4(CC3)CC(O)C4)cc2c(-c2ccc(N3CCN(C(C)C)CC3)cc2)n1 [Example A29, 7-[[4-[4-(4-isopropylpiperazin-1-yl)phenyl]-6-methyl-1H-pyrrolo[3,2-c]pyridin-2-yl]methyl]-7-azaspiro[3.5] nonan-2-ol]
4 |  | 100 | Cc1cc2[nH]c(CCN3CCOCC3)cc2c(-c2ccc(N3CCN(C)CC3)cc2)n1 [Example B4, 4-[2-[6-methyl-4-[4-(4-methylpiperazin-1-yl)phenyl]-1H-pyrrolo[3,2-c]pyridin-2-yl]ethyl]morpholine]
5 |  | 100 | Cc1nc(-c2ccc(N3CCN(C(C)C)CC3)cc2)c2cc(CN3CCCCC3)[nH]c2c1C [Example A39, 4-[4-(4-isopropylpiperazin-1-yl)phenyl]-6,7-dimethyl-2-(1-piperidylmethyl)-1H-pyrrolo[3,2-c]pyridine]
6 | 100 | 100 | Cc1cc2[nH]c(Cn3cccn3)cc2c(-c2ccc(N3CCN(C(C)C)CC3)cc2)n1 [Example A28, 4-[4-(4-isopropylpiperazin-1-yl)phenyl]-6-methyl-2-(pyrazol-1-ylmethyl)-1H-pyrrolo[3,2-c]pyridine]
7 | 100 | 90 | Cc1cc2c(cc(CN3CCOCC3)n2C)c(-c2ccc(N3CCN(C(C)C)CC3)cc2)n1 [Example A35, 4-[[4-[4-(4-isopropylpiperazin-1-yl]phenyl]-1,6-dimethyl-pyrrolo[3,2-c]pyridin-2-yl]methyl] morpholine]
8 |  | 95 | CC(C)N1CCN(c2ccc(-c3nccc4[nH]c(CN5CCC[C@@H]5C(=O)O)cc34)cc2)CC1 [Example A74, (2R)-1-[[4-[4-(4-isopropylpiperazin-1-yl)phenyl]-1H-pyrrolo[3,2-c]pyridin-2-yl]methyl]pyrrolidine-2-carboxylic acid]
9 | 100 | 100 | Cc1cc2[nH]c(CCN3CCOCC3)cc2c(-c2ccc(N3CCN(C(C)C)CC3)cc2)n1 [Example B3, 4-[2-[4-[4-(4-isopropylpiperazin-1-yl)phenyl]-6-methyl-1H-pyrrolo[3,2-c]pyridin-2-yl]ethyl]morpholine]
10 | 37 | 20 | c1cc2[nH]c(CN3CCOCC3)cc2c(-c2ccc(N3CCN(C4COC4)CC3)cc2)n1 [Example A81, 4-[[4-[4-[4-(oxetan-3-yl)piperazin-1-yl]phenyl]-1H-pyrrolo[3,2-c]pyridin-2-yl]methyl]morpholine]
11 | 100 | 85 | CCN1CCN(c2ccc(-c3nccc4[nH]c(CN5CCOCC5)cc34)cc2)CC1 [Example A3, 4-[[4-[4-(4-ethylpiperazin-1-yl)phenyl]-1H-pyrrolo[3,2-c]pyridin-2-yl]methyl] morpholine]
12 | 100 | 92 | COc1cc(-c2nc(C)cc3c2cc(CCN2CCOCC2)n3C)ccc1N1CCN(C(C)C)CC1 [Example B22, 4-[2-[4-[4-(4-isopropylpiperazin-1-yl)-3-methoxy-phenyl]-1,6-dimethyl-pyrrolo[3,2-c]pyridin-2-yl]ethyl]morpholine]
13 | 94 | 100 | Cc1cc2[nH]c(CCCN3CCCCC3)cc2c(-c2ccc(N3CCN(C(C)C)CC3)cc2)n1 [Example C5, 4-[4-(4-isopropylpiperazin-1-yl)phenyl]-6-methyl-2-[3-(1-piperidyl)propyl]-1H-pyrrolo[3,2-c]pyridine]
14 |  | 0 | CN1CCC(n2cc(-c3nccc4[nH]c(CN5CCOCC5)cc34)cn2)CC1 [Example A63, 4-[[4-[1-(1-methyl-4-piperidyl)pyrazol-4-yl]-1H-pyrrolo[3,2-c]pyridin-2-yl]methyl]morpholine]
15 | 100 | 95 | CN1CCN(c2ccc(-c3nccc4[nH]c(CCN5CCOCC5)cc34)cc2)CC1 [Example B2, 4-[2-[4-[4-(4-methylpiperazin-1-yl)phenyl]-1H-pyrrolo[3,2-c]pyridin-2-yl]ethyl]morpholine]
16 | 100 | 90 | Cc1cc2[nH]c(CN3CCOCC3)cc2c(-c2ccc(C3CCN(C(C)C)CC3)cc2)n1 [Example A51, 4-[[4-[4-(1-isopropyl-4-piperidyl)phenyl]-6-methyl-1H-pyrrolo[3,2-c]pyridin-2-yl]methyl]morpholine]
17 | 100 | 94 | CN1CCN(c2ccc(-c3nccc4[nH]c(CN5CCOCC5)cc34)cc2)CC1 [Example A2, 4-[[4-[4-(4-methylpiperazin-1-yl)phenyl]-1H-pyrrolo[3,2-c]pyridin-2-yl]methyl] morpholine]
18 | 96 | 59 | CC(C)N1CCN(Cc2ccc(-c3nccc4[nH]c(CN5CCOCC5)cc34)cc2)CC1 [Example A55, 4-[[4-[4-[(4-isopropylpiperazin-1-yl)methyl]phenyl]-1H-pyrrolo[3,2-c]pyridin-2-yl]methyl]morpholine]
19 |  | 100 | Cc1nc(-c2ccc(N3CCN(C(C)C)CC3)cc2)c2cc(CN3CCCC3)[nH]c2c1C [Example A40, 4-[4-(4-isopropylpiperazin-1-yl)phenyl]-6,7-dimethyl 2-(pyrrolidin-1-ylmethyl)-1H-pyrrolo[3,2-c)pyridine]
20 |  | 100 | CC(C)N1CCN(c2ccc(-c3nccc4c3cc(CN3CCOCC3)n4C)cc2)CC1 [Example A8, 4-[[4-[4-(4-isopropylpiperazin-1-yl)phenyl]-1-methyl-pyrrolo[3,2-c]pyridin-2-yl]methyl] morpholine]

Reference: patent publication US9643967B2, “Pyrrolo[3,2-c]pyridine derivatives as TLR inhibitors” (TAKEDA PHARMACEUTICAL COMPANY LIMITED, priority 2013, dated 2017)
